# Reference: US6395281B1, “Cosmetic skin conditioning compositions containing red yeast rice extract” (Unilever Home & Personal Care USA, a division of Conopco, …, priority 1999, dated 2002)
# Columns and labels:
# ZR75 cells = test: Assay for estrogen like activity: [methyl-3H] thymidine incorporation in ZR75 cells; assay type: cell-based, human; details: 0.27 × 10^−6% (10 nM)
# Text: The ZR75 cell line is a ductal breast carcinoma cell line, originally isolated from malignant mammary epithelium of a person (10). The chromosome number is triploid and the trypsin-Giemsa banding patterns indicate a unique karyotype distinct from HeLa cells. While containing receptors for estrogen, insulin, progesterone and other hormones, ZR75 cells only respond through an increase in proliferation to estrogen and insulin. The cell line contains high affinity estrogen-specific receptors. Therefore, this cell line is used for testing estrogen-like activity.
# The cells are split 1:2 once every week and seeded in 24 well plates at one hundred thousand cells per milliliter per well for the assay.
# After growing for twenty-four hours, the media was removed, the cells were washed with PBS and one ml of RPMI 1640 without serum was readded. Different dilutions of the red yeast rice extract were then dosed directly into each well. After another twenty-four hours, one microCurie of [methyl-3H] thymidine was added to the media in each well. The media was removed after twenty-four hours to begin the thymidine uptake assay. […] The samples were transferred to scintillation vials and after adding five milliliters of counting fluid (scintiverse), the vials were counted for five minutes each on a setting for tritium. […] Data was calculated as % of control to normalize for experiment-to-experiment variation.
# [1] = tested on: Neonatal human dermal fibroblasts; test: Procollagen I production by fibroblasts (dot blot); assay type: cell-based; details: 50 μg; for Procollagen 1 production: densitometer reading
# Procedure: This example measured production of procollagen I by fibroblasts in response to treatment with various test compounds.
# Methodology for determination of (Pro) Collagen-I protein expression using Dot Blot technique:
# Neonatal human dermal fibroblasts (passage 4 to 8) were purchased from Clonetics Corp. San Diego, Calif. All materials for cell culture were purchased from Life technologies, New York and used in passages 5-10. Cells were seeded at a density of approximately 7,500/well in the inner 48 wells of a 96-well plate in DMEM (Dulbecco's Modified Eagle's Medium), high glucose supplemented with 2 mM L-glutamine, 10% fetal bovine serum, and antibiotic and. antimycotic solutions. Cells were grown to confluence and washed with serum free, phenol red free DMEM and cells dosed with 200 μl actives in media. Each dosing was replicated in a total of six to twelve wells. After 24 hours, the test compound solution or the control solution was removed and cells re-dosed with 100 μl actives in media. After 24 hours incubation, remove media and store at 4° C. with protease inhibitor (Aprotinin 1:200) until further use. The test compound solution was then diluted in 1X Tris buffered saline (pH=8) buffer (approximately 20 μl media in 200 μl buffer).
# PVDF membrane soaked in methanol and 2 filter papers in 1X TBS (pH=8). Bio-Rad dot blot apparatus was set up with filter paper on bottom, membrane on top, tighten, added 100 μl TBS per well. Vacuum dry. Vortex or mix, then load 100 μl diluted sample per well; let it sit for 15 minutes and then vacuum dry. Remove membrane from the apparatus, cut off excess, and notch bottom right comer for orientation. Place membrane in blocking buffer (5% milk powder in 1X TBS-Tween) for 1 hour at room temperature with shaking. […] Remove membrane, do a 10 minute wash three to five times in TBS/0.1% Tween. Incubate for 1 hour at RT or O/N at 4° C. in 5 ml 1:1000 anti-rat conjugated alkaline phosphatase (AP) secondary antibody in 1-% milk in TBS-T in a sealed bag with shaking. Wash membrane for 15 minutes five to eight times with TBS-T, and final rinse with 1X PBS. The membrane was developed using Chemiluminiscent substrate (Boehringer Mannheim, Ind.) and results were analysed using a laser densitometer (Bio-Rad instrument). Fold increase was calculated as a ratio of densitometer reading for cells treated with a test compound over control.
# [2] = tested on: Cellular Retinoic Acid Binding Protein 2 (CRABP-2) in human adult fibroblasts; test: CRABP-2 production by fibroblasts (Western blot); assay type: cell-based; details: 10e-6M retinoid alone, 48 hours
# Procedure: This example investigated the effect of various tested compounds on CRABP-2 production by fibroblasts.
# Human adult fibroblasts obtained from su n-protected inner arm of 25-30 year […] volunteer were used in this. Cells were grown in 1:1 DMEM/Hams F12 media containing 10% FBS, maintained at 37° C. in a 5% CO2 atmosphere under normal atmospheric oxygen tension. Third passage adult fibroblasts were grown in DMEM media with 10% FBS in 12-well plates at a seeding density of 2500 cells/ml/well. The cells at 80% confluence were rinsed in serum free and phenol red free (PRF) DMEM media twice. Pre-treatment with test compound for 4 hours was conducted and then dosed with retinoids and was incubated for 48 hours.
# After the incubation, the wells were was ed twice with 1X PBS and the cell monolayer was harvested in 100 μl cell lysis buffer (contains 1X PBS, 1% TritonX, 0.5% sodium deoxycholate, 0.1% SDS containing p tease inhibitor (10 mg/ml PMSF in isopropanol, 10 μl/ml). The suspension was spun at 14000 rpm for 10 minutes, the supernatant collected and an aliquot of this supematant was used for protein quantification. Protein concentration was determined using Pierce protein kit. The remainder of 100 μl supernatant (cell lysate) was denatured in a mixture of 40 μl sample buffer (NOVEX) and 0.5% Beta mercaptoethanol (IBME) and by boiling the sample for 5 minutes. Equal amount of protein was then loaded onto 16% Tris-glycine gels for protein analysis by SDS page and Western Immuno-blotting for CRABP-2 protein expression.
# The gels were run and transferred to nitrocellulose blots and Western Blotting was carried out using monoclonal antibodies to CRABP-2 according to standard procedures. The CRABP-2 protein band was visualized in the Western Blots using the chemiluminescence system obtained from Santa Cruz Biotechnology (SantaCruz, Calif.). The bands in the film were quantitated by densitometric scanning, the-data from triplicate samples were calculated as % of control and expressed in the following tables as % increase over control (with control as 100%) +/−SD of triplicates.
# human sebocytes = test: Sebum secretion by sebocytes (14C-acetate incorporation); assay type: cell-based; details: 0.001%
# Procedure: This example investigated the effect of red yeast rice on sebum secretion by sebocytes. Secondary cultures of human sebocytes obtained from an adult […] were grown in 48-well tissue culture plates (Costar Corp.; Cambridge, Mass.) until confluent. Sebocyte growth medium consisted of Clonetics Keratinocyte Basal Medium (KBM) supplemented with 14 μg/ml bovine pituitary extract, 0.4 μg/ml hydrocortisone, 5 μg/ml insulin, 10 ng/ml epidermal growth factor, 1.2×10−10 M cholera toxin, 100 units/ml penicillin, and 100 μg/ml streptomycin. All cultures were incubated at 37° C. in the presence of 7.5% CO2. Medium was changed three times per week. On the day of experimentation, the growth medium was removed and the sebocytes washed three times with sterile Dulbecco's Modified Eagle Medium (DMEM; phenol red free). Fresh DMEM was added to each sample (triplicates in Table 4 and duplicated in Table 5) with 5 microliter of test agent solubilized in ethanol. Controls consisted of addition of ethanol alone. Each plate was returned to the incubator for 20 hours followed by the addition of 14C-acetate buffer (5 mM final concentration, 56 mCi/mmol specific activity). […] Radioactive label remaining in the sebocytes was harvested and counted using a Beckman scintillation counter. […]
SMILES,Procollagen 1 production % of Control [1],Procollagen 1 production [1],CRABP-2 % of Control [2],CRABP-2 OD +/− SD [2],other results
"C[C@]12CC[C@@H]3c4ccc(O)cc4CC[C@H]3[C@@H]1CC[C@@H]2O [Estradol, estradiol]",–,–,–,–,"cpm +/− SD (thymidine incorporation) (ZR75 cells): 263982 +/− 711 cpm; activity at 0.01 µM (ZR75 cells; Homo sapiens, ZR75, read-out: thymidine incorporation % of control): 224%"
O=C1O[C@H]([C@@H](O)CO)C(O)=C1O [Vitamin C],175 +/− 37%,1.311 +/− 0.28,–,–,–
CC(=O)OC/C=C(C)/C=C/C=C(C)/C=C/C1=C(C)CCCC1(C)C [Retinyl Acetate],–,–,398 +/− 157%,3.86 +/− 0.28 OD,–
"O=C1O[C@H]([C@@H](O)CO)C([O-])=C1OP(=O)([O-])[O-].[Na+].[Na+].[Na+] [Sodium ascorbyl phosphate, sodium ascorbyl phosphate]",116 +/− 27%,0.871 +/− 0.2,–,–,–
O=S1(=O)OC(c2ccc(O)cc2)(c2ccc(O)cc2)c2ccccc21 [Phenol Red],–,–,–,–,"% Reduction (sebum, 14C-acetate label) (human sebocytes; first Table 4 (triplicates)): 83.4%; % Reduction (sebum, 14C-acetate label) (human sebocytes; second table, printed as Table 4 (Table 5, duplicates)): 83.4%"
CCCCC/C=C\C/C=C\CCCCCCCC(=O)OC/C=C(C)/C=C/C=C(C)/C=C/C1=C(C)CCCC1(C)C [Retinyl linoleate],–,–,156 +/− 13%,1.96 +/− 0.16 OD,–
CCCCCCCCCCCCCCCC(=O)OC/C=C(C)/C=C/C=C(C)/C=C/C1=C(C)CCCC1(C)C [Retinyl palmitate],–,–,178 +/− 33%,2.00 +/− 0.04 OD,–
"CCCCCCCCCCCCCCCC(=O)OC[C@H](O)[C@H]1OC(=O)C(O)=C1O [Ascorbyl Palmitate, ascorbyl palmitate]",103 +/− 48%,0.775 +/− 0.36,–,–,–
CC1=C(/C=C/C(C)=C/C=C/C(C)=C/CO)C(C)(C)CCC1 [Retinol],–,–,153 +/− 5%,1.91 +/− 0.06 OD,–
